Series [1] can be described thus: Toxicity in female BALB/cA nude mouse assessed as effect on body weight loss at 15 mg/kg, iv administered twice per week measured after 107 days. Format: organism-based. Particulars: in vivo, 2568 h, time 107 day.
Series [2] deals with BXPC-3. As to the kind of experiment: Antitumor activity against human BXPC-3 cells xenografted in female BALB/cA nude mouse model assessed as suppression of tumor growth by measuring relative tumor proliferation rate at 38 mg/kg, iv measured after 24 days relative to control. Format: functional. Particulars: time 24 day.
The next series in a line: in vivo. Particulars: female, BALB/c, mouse, 15 mg/kg.
Series [3] concerns HCT-116. The series is described as follows: Antitumor activity against human HCT-116 cells xenografted in female BALB/cA nude mouse model assessed as relative tumor proliferation rate at 15 mg/kg, iv administered twice per week measured on 107 days relative to control. Format: functional. Particulars: time 107 day.
Series [4] in a line: Prodrug release in female BALB/c nude mouse tumor assessed as (S)-4,11-diethyl-4,9-dihydroxy-1,12-dihydro-14H-pyrano[3',4':6,7]indolizino[1,2-b]quinoline-3,14(4H)-dione accumulation at 15 mg/kg measured after 1 hr by HPLC analysis. Format: ADME, organism-based, Neoplasm. The following applies: in vivo.
Series [5] is described as follows: Toxicity in female BALB/cA nude mouse assessed as appearance of loss of alveolar architecture at 15 mg/kg, iv BID for 35 days by H and E staining based analysis. Format: organism-based. The following applies: in vivo, 840 h, time 35 day.
A short description of series [6]: Toxicity in female BALB/cA nude mouse assessed as mortality at 15 mg/kg, iv administered twice per week measured after 107 days. Format: organism-based. The following applies: in vivo, 2568 h, time 107 day.
Series [7] relates to HCT-116. The series is described as follows: Antitumor activity against human HCT-116 cells xenografted in female BALB/cA nude mouse model assessed as relative tumor proliferation rate at 15 mg/kg, iv administered twice per week measured after 107 days. Format: functional, organism-based. The following applies: time 107.0 day.
A short description of series [8]: Toxicity in female BALB/cA nude mouse assessed as damage in heart at 15 mg/kg, iv measured after 24 hrs by H and E staining based analysis. Format: organism-based. Particulars: in vivo.
Series [9] in a line: Toxicity in female BALB/cA nude mouse assessed as pulmonary damage at 15 mg/kg, iv BID for 35 days by H and E staining based analysis. Format: organism-based. Particulars: in vivo, 840 h, time 35 day.
The nature of series [10]: Toxicity in female BALB/cA nude mouse assessed as damage in lung at 15 mg/kg, iv measured after 24 hrs by H and E staining based analysis. Format: organism-based. The following applies: in vivo.
Series [11] in a line: Toxicity in female BALB/cA nude mouse assessed as appearance of fibrosis in lung at 15 mg/kg, iv measured after 24 hrs by H and E staining based analysis. The following applies: in vivo. Format: organism-based.
Series [12] in a line: Toxicity in female BALB/cA nude mouse assessed as necrosis in tumor tissue at 15 mg/kg, iv measured after 24 hrs by H and E staining based analysis. Format: organism-based. Particulars: in vivo.
Series [13] is described as follows: Toxicity in female BALB/cA nude mouse assessed as appearance of alveolar wall thickening at 15 mg/kg, iv BID for 35 days by H and E staining based analysis. Format: organism-based. The following applies: in vivo, 840 h, time 35 day.
Series [14] in a line: Cmax in female BALB/c mouse at 15 mg/kg measured up to 5 hrs by HPLC analysis. Format: ADME, organism-based. Particulars: in vivo.
Series [15] has as its system BXPC-3. As to the kind of experiment: Antitumor activity against human BXPC-3 cells xenografted in female BALB/cA nude mouse model assessed as suppression of tumor growth by measuring relative tumor proliferation rate at 38 mg/kg, iv measured after 35 days. Format: functional, organism-based. Particulars: time 35.0 day.
Series [16] in a line: Toxicity in female BALB/cA nude mouse assessed as appearance of fibrosis in heart at 15 mg/kg, iv measured after 24 hrs by H and E staining based analysis. Format: organism-based. Particulars: in vivo.

The source made the active and inactive calls. The rule behind the calls is not given here.

In the case of `CCc1c2c(nc3ccc(OC(=O)N4CCC(N5CCCCC5)CC4)cc13)-c1cc3c(c(=O)n1C2)COC(=O)[C@]3(O)CC` [IRINOTECAN], the Activity result in series [1] was “Toxic”; with BXPC-3 [2], 43.53%; in the series with HCT-116 [3] it was 50.36%; in series [5], “Toxic”; in series [6], “Non-toxic”; in [8], “Toxic”. In addition, the Activity entry in series [9], in [10], in series [11], in series [12], in series [13] and in series [16] was “Toxic” throughout. The same molecule came in with an AUC(0-t) at 5 h in “in vivo” of 3120 ng·h/mL. In addition, the Drug metabolism in series [4] is on record as 0.032 % ID/g. In addition, the outcome in the series with HCT-116 [7] and in the series with BXPC-3 [15] was inactive. The peak level in [14] (Cmax) was 3040 ng/mL.

The values above are taken from ChEMBL document CHEMBL6134851, “Comparative Study on Covalent and Noncovalent Endogenous Albumin-Binding β-Glucuronidase-Activated SN38 Prodrugs for Antitumor Efficacy” (J Med Chem, 2025).
